{"source": "ChEMBL document CHEMBL1649524", "about": "“Resistance selection studies comparing the activity of razupenem (PTZ601) to vancomycin and linezolid against eight methicillin-resistant and two methicillin-susceptible Staphylococcus aureus strains” (2009)", "type_in_all_cases": "functional", "key": {"[1]": {"tested_on": "Staphylococcus aureus", "assay": "Antimicrobial activity against vancomycin-intermediate Staphylococcus aureus 555 after 27 passages by macrodilution method"}, "[2]": {"tested_on": "Staphylococcus aureus", "assay": "Antimicrobial activity against vancomycin-intermediate Staphylococcus aureus 555 measured on day 45 by macrodilution method"}, "[3]": {"tested_on": "Staphylococcus aureus", "assay": "Antimicrobial activity against vancomycin-intermediate Staphylococcus aureus 1287 by macrodilution method"}, "[4]": {"tested_on": "Staphylococcus aureus", "assay": "Antimicrobial activity against vancomycin-resistant Staphylococcus aureus 510 by macrodilution method"}, "[5]": {"tested_on": "Staphylococcus aureus", "assay": "Antimicrobial activity against heterogeneous vancomycin-intermediate Staphylococcus aureus 168 measured on day 10 by macrodilution method", "settings": "Staphylococcus aureus, 168, 240 h"}, "[6]": {"tested_on": "Staphylococcus aureus", "assay": "Antimicrobial activity against methicillin-susceptible Staphylococcus aureus 543 measured on day 20 by macrodilution method", "settings": "Staphylococcus aureus, 543, 480 h"}, "[7]": {"tested_on": "Staphylococcus aureus", "assay": "Antimicrobial activity against methicillin-susceptible Staphylococcus aureus 540 measured on day 45 by macrodilution method"}, "[8]": {"tested_on": "Staphylococcus aureus", "assay": "Antimicrobial activity against heterogeneous vancomycin-intermediate Staphylococcus aureus 168 measured on day 50 by macrodilution method"}, "[9]": {"tested_on": "Staphylococcus aureus", "assay": "Antimicrobial activity against methicillin-susceptible Staphylococcus aureus 540 after 49 passages by macrodilution method"}, "[10]": {"tested_on": "Staphylococcus aureus", "assay": "Antimicrobial activity against heterogeneous vancomycin-intermediate Staphylococcus aureus 168 after 50 passages by macrodilution method"}, "[11]": {"tested_on": "Staphylococcus aureus", "assay": "Antimicrobial activity against methicillin-resistant Staphylococcus aureus 525 measured on day 45 by macrodilution method"}, "[12]": {"tested_on": "Staphylococcus aureus", "assay": "Antimicrobial activity against methicillin-resistant Staphylococcus aureus 525 measured on day 50 by macrodilution method"}, "[13]": {"tested_on": "Staphylococcus aureus", "assay": "Antimicrobial activity against vancomycin-resistant Staphylococcus aureus 510 measured on day 10 by macrodilution method", "settings": "Staphylococcus aureus, 510, 240 h"}, "[14]": {"tested_on": "Staphylococcus aureus", "assay": "Antimicrobial activity against heterogeneous vancomycin-intermediate Staphylococcus aureus 873 measured on day 50 by macrodilution method"}, "[15]": {"tested_on": "Staphylococcus aureus", "assay": "Antimicrobial activity against methicillin-resistant Staphylococcus aureus 525 by macrodilution method"}, "[16]": {"tested_on": "Staphylococcus aureus", "assay": "Antimicrobial activity against heterogeneous vancomycin-intermediate Staphylococcus aureus 873 measured after 10 antibiotic-free subculturing by macrodilution method"}, "[17]": {"tested_on": "Staphylococcus aureus", "assay": "Antimicrobial activity against methicillin-susceptible Staphylococcus aureus 543 measured on day 25 by macrodilution method", "settings": "Staphylococcus aureus, 543, 600 h"}, "[18]": {"tested_on": "Staphylococcus aureus", "assay": "Antimicrobial activity against methicillin-susceptible Staphylococcus aureus 543 measured on day 45 by macrodilution method"}, "[19]": {"tested_on": "Staphylococcus aureus", "assay": "Antimicrobial activity against methicillin-resistant Staphylococcus aureus 547 measured on day 35 by macrodilution method"}, "[20]": {"tested_on": "Staphylococcus aureus", "assay": "Antimicrobial activity against methicillin-resistant Staphylococcus aureus 547 measured on day 50 by macrodilution method"}, "[21]": {"tested_on": "Staphylococcus aureus", "assay": "Antimicrobial activity against methicillin-susceptible Staphylococcus aureus 543 measured on day 5 by macrodilution method", "settings": "Staphylococcus aureus, 543, 120 h"}, "[22]": {"tested_on": "Staphylococcus aureus", "assay": "Antimicrobial activity against methicillin-susceptible Staphylococcus aureus 543 measured on day 15 by macrodilution method", "settings": "Staphylococcus aureus, 543, 360 h"}, "[23]": {"tested_on": "Staphylococcus aureus", "assay": "Antimicrobial activity against methicillin-resistant Staphylococcus aureus 547 measured on day 30 by macrodilution method"}, "[24]": {"tested_on": "Staphylococcus aureus", "assay": "Antimicrobial activity against vancomycin-intermediate Staphylococcus aureus 555 measured on day 40 by macrodilution method"}, "[25]": {"tested_on": "Staphylococcus aureus", "assay": "Antimicrobial activity against vancomycin-intermediate Staphylococcus aureus 555 measured on day 50 by macrodilution method"}, "[26]": {"tested_on": "Staphylococcus aureus", "assay": "Antimicrobial activity against vancomycin-intermediate Staphylococcus aureus 555 measured on day 25 by macrodilution method", "settings": "Staphylococcus aureus, 555, 600 h"}, "[27]": {"tested_on": "Staphylococcus aureus", "assay": "Antimicrobial activity against methicillin-resistant Staphylococcus aureus 525 measured on day 30 by macrodilution method"}}}
{"smiles": "C[C@H]1C=C(c2csc(SC3=C(C(=O)O)N4C(=O)[C@H]([C@@H](C)O)[C@H]4[C@H]3C)n2)CN1", "note": "[RAZUPENEM]", "values": [{"measurement": "MIC", "setting": "[1]", "result": 4, "unit": "µg/mL"}, {"measurement": "MIC", "setting": "[2]", "result": 8, "unit": "µg/mL"}, {"measurement": "MIC", "setting": "[3]", "result": 0.06, "unit": "µg/mL"}, {"measurement": "MIC", "setting": "[4]", "result": 1, "unit": "µg/mL"}, {"measurement": "MIC", "setting": "[5]", "result": 4, "unit": "µg/mL"}, {"measurement": "MIC", "setting": "[6]", "result": 0.03, "unit": "µg/mL"}, {"measurement": "MIC", "setting": "[7]", "result": 0.06, "unit": "µg/mL"}, {"measurement": "MIC", "setting": "[8]", "result": 8, "unit": "µg/mL"}, {"measurement": "MIC", "setting": "[9]", "result": 0.125, "unit": "µg/mL"}, {"measurement": "MIC", "setting": "[10]", "result": 8, "unit": "µg/mL"}, {"measurement": "MIC", "setting": "[11]", "result": 32, "unit": "µg/mL"}, {"measurement": "MIC", "setting": "[12]", "result": 32, "unit": "µg/mL"}, {"measurement": "MIC", "setting": "[13]", "result": 2, "unit": "µg/mL"}, {"measurement": "MIC", "setting": "[14]", "result": 16, "unit": "µg/mL"}, {"measurement": "MIC", "setting": "[15]", "result": 1, "unit": "µg/mL"}, {"measurement": "MIC", "setting": "[16]", "result": 8, "unit": "µg/mL"}, {"measurement": "MIC", "setting": "[17]", "result": 0.03, "unit": "µg/mL"}, {"measurement": "MIC", "setting": "[18]", "result": 0.06, "unit": "µg/mL"}, {"measurement": "MIC", "setting": "[19]", "result": 16, "unit": "µg/mL"}, {"measurement": "MIC", "setting": "[20]", "result": 16, "unit": "µg/mL"}, {"measurement": "MIC", "setting": "[21]", "result": 0.03, "unit": "µg/mL"}, {"measurement": "MIC", "setting": "[22]", "result": 0.03, "unit": "µg/mL"}, {"measurement": "MIC", "setting": "[23]", "result": 2, "unit": "µg/mL"}, {"measurement": "MIC", "setting": "[24]", "result": 4, "unit": "µg/mL"}, {"measurement": "MIC", "setting": "[25]", "result": 16, "unit": "µg/mL"}, {"measurement": "MIC", "setting": "[26]", "result": 2, "unit": "µg/mL"}, {"measurement": "MIC", "setting": "[27]", "result": 8, "unit": "µg/mL"}]}
